# Source: ChEMBL document CHEMBL1126980, “New, potent anthelmintic and acaricidal agents: 4-deoxy-4-thio-substituted avermectin derivatives” (Bioorg Med Chem Lett, 1993)
# What was measured:
# Artemia salina = experiment: Tested in vitro for the biological efficacy using Artemia salina (brine shrimp) immobilization assay; format: functional
# Tetranychus urticae = experiment: Tested for acaricidal efficacy using a Tetranychus urticae (two-spotted spider mite, TSSM) contact assay; format: functional; set-up: concentration or dose not given beside the values
# Caenorhabditis elegans = experiment: Tested in vitro for the biological efficacy using Caenorhabditis elegans binding assay; format: functional, organism-based
# [1] = test system: Trichostrongylus colubriformis; experiment: Tested in vivo for the biological efficacy using Trichostrongylus colubriformis gerbil assay; format: functional
# Ovis aries [2] = experiment: Tested for the anthelmintic efficacy against Trichostrongylus axei at 0.1 mg/kg; range is 91-100%; format: functional
# Ovis aries [3] = experiment: Tested for anthelmintic efficacy against Haemonchus contortus at 0.1 mg/kg; range is 91-100%; format: functional
# Ovis aries [4] = experiment: Tested for the anthelmintic efficacy against Oesphagostomum columbianum at 0.1 mg/kg; range is 91-100%; format: functional
# Ovis aries [5] = experiment: Tested for the anthelmintic efficacy against Ostertagia circumcincta at 0.1 mg/kg; range is 91-100%; format: functional
# Ovis aries [6] = experiment: Tested for the anthelmintic efficacy against Cooperia curticei at 0.1 mg/kg; range is 91-100%; format: functional
# Ovis aries [7] = experiment: Tested for the anthelmintic efficacy against Trichostrongylus colubriformis at 0.1 mg/kg; range is 91-100%; format: functional
SMILES,IC100 (Artemia salina) [ng/mL],Mortality (Tetranychus urticae) [%],IC50 (Caenorhabditis elegans) [ng/mL],ED85 [1] [mg/kg],Reduction (Ovis aries [2]) [%],Reduction (Ovis aries [3]) [%],Reduction (Ovis aries [4]) [%],Reduction (Ovis aries [5]) [%],Reduction (Ovis aries [6]) [%],Reduction (Ovis aries [7]) [%]
CCC(C)[C@H]1O[C@]2(C=C[C@@H]1C)C[C@@H]1C[C@@H](C/C=C(\C)[C@@H](O[C@H]3C[C@H](OC)[C@@H](O[C@H]4C[C@H](OC)[C@@H](SCCCO)[C@H](C)O4)[C@H](C)O3)[C@@H](C)/C=C/C=C3\CO[C@@H]4[C@H](O)C(C)=C[C@@H](C(=O)O1)[C@]34O)O2 (some centres not stated),870,53,0.153,0.25,–,–,–,–,–,–
CCC(C)[C@H]1O[C@]2(C=C[C@@H]1C)C[C@@H]1C[C@@H](C/C=C(\C)[C@@H](O[C@H]3C[C@H](OC)[C@@H](O[C@H]4C[C@H](OC)[C@H]([S+](C)[O-])[C@H](C)O4)[C@H](C)O3)[C@@H](C)/C=C/C=C3\CO[C@@H]4[C@H](O)C(C)=C[C@@H](C(=O)O1)[C@]34O)O2 (some centres not stated),870,64,0.262,0.031,91,91,91,91,91,91
CCC(C)[C@H]1O[C@]2(CC[C@@H]1C)C[C@@H]1C[C@@H](C/C=C(\C)[C@@H](O[C@H]3C[C@H](OC)[C@@H](O[C@H]4C[C@H](OC)[C@H]([S+](C)[O-])[C@H](C)O4)[C@H](C)O3)[C@@H](C)/C=C/C=C3\CO[C@@H]4[C@H](O)C(C)=C[C@@H](C(=O)O1)[C@]34O)O2 (some centres not stated),870,77,0.108,0.063,–,–,–,–,–,–
CCC(C)[C@H]1O[C@]2(C=C[C@@H]1C)C[C@@H]1C[C@@H](C/C=C(\C)[C@@H](O[C@H]3C[C@H](OC)[C@@H](O[C@H]4C[C@H](OC)[C@H](S(C)(=O)=O)[C@H](C)O4)[C@H](C)O3)[C@@H](C)/C=C/C=C3\CO[C@@H]4[C@H](O)C(C)=C[C@@H](C(=O)O1)[C@]34O)O2 (some centres not stated),430,45,0.132,0.063,91,91,91,91,91,91
CCC(C)[C@H]1O[C@]2(C=C[C@@H]1C)C[C@@H]1C[C@@H](C/C=C(\C)[C@@H](O[C@H]3C[C@H](OC)[C@H](SC)[C@H](C)O3)[C@@H](C)/C=C/C=C3\CO[C@@H]4[C@H](O)C(C)=C[C@@H](C(=O)O1)[C@]34O)O2 (some centres not stated),6930,100,0.422,0.125,–,–,–,–,–,–
CCC(C)[C@H]1O[C@]2(C=C[C@@H]1C)C[C@@H]1C[C@@H](C/C=C(\C)[C@@H](O[C@H]3C[C@H](OC)[C@@H](O[C@H]4C[C@H](OC)[C@H](SCC(C)O)[C@H](C)O4)[C@H](C)O3)[C@@H](C)/C=C/C=C3\CO[C@@H]4[C@H](O)C(C)=C[C@@H](C(=O)O1)[C@]34O)O2 (some centres not stated),870,89,0.216,0.063,–,–,–,–,–,–
CCC(C)[C@H]1O[C@]2(C=C[C@@H]1C)C[C@@H]1C[C@@H](C/C=C(\C)[C@@H](O[C@H]3C[C@H](OC)[C@@H](O[C@H]4C[C@H](OC)[C@@H](S(=O)(=O)CC)[C@H](C)O4)[C@H](C)O3)[C@@H](C)/C=C/C=C3\CO[C@@H]4[C@H](O)C(C)=C[C@@H](C(=O)O1)[C@]34O)O2 (some centres not stated),870,64,0.123,0.063,–,–,–,–,–,–
CCC(C)[C@H]1O[C@]2(C=C[C@@H]1C)C[C@@H]1C[C@@H](C/C=C(\C)[C@@H](O[C@H]3C[C@H](OC)[C@H](SCCO)[C@H](C)O3)[C@@H](C)/C=C/C=C3\CO[C@@H]4[C@H](O)C(C)=C[C@@H](C(=O)O1)[C@]34O)O2 (some centres not stated),870,94,–,0.063,–,–,–,–,–,–
CCC(C)[C@H]1O[C@]2(CC[C@@H]1C)C[C@@H]1C[C@@H](C/C=C(\C)[C@@H](O[C@H]3C[C@H](OC)[C@@H](O[C@H]4C[C@H](OC)[C@H]([S+]([O-])CCO)[C@H](C)O4)[C@H](C)O3)[C@@H](C)/C=C/C=C3\CO[C@@H]4[C@H](O)C(C)=C[C@@H](C(=O)O1)[C@]34O)O2 (some centres not stated),870,31,0.188,0.25,–,–,–,–,–,–
CCC(C)[C@H]1O[C@]2(C=C[C@@H]1C)C[C@@H]1C[C@@H](C/C=C(\C)[C@@H](O[C@H]3C[C@H](OC)[C@@H](O[C@H]4C[C@H](OC)[C@@H](SCCNC(C)=O)[C@H](C)O4)[C@H](C)O3)[C@@H](C)/C=C/C=C3\CO[C@@H]4[C@H](O)C(C)=C[C@@H](C(=O)O1)[C@]34O)O2 (some centres not stated),870,63,0.165,0.063,–,–,–,–,–,–
CCC(C)[C@H]1O[C@]2(CC[C@@H]1C)C[C@@H]1C[C@@H](C/C=C(\C)[C@@H](O[C@H]3C[C@H](OC)[C@@H](O[C@H]4C[C@H](OC)[C@H](S(C)(=O)=O)[C@H](C)O4)[C@H](C)O3)[C@@H](C)/C=C/C=C3\CO[C@@H]4[C@H](O)C(C)=C[C@@H](C(=O)O1)[C@]34O)O2 (some centres not stated),870,64,0.084,0.125,–,–,–,–,–,–
CCC(C)[C@H]1O[C@]2(C=C[C@@H]1C)C[C@@H]1C[C@@H](C/C=C(\C)[C@@H](O[C@H]3C[C@H](OC)[C@@H](O)[C@H](C)O3)[C@@H](C)/C=C/C=C3\CO[C@@H]4[C@H](O)C(C)=C[C@@H](C(=O)O1)[C@]34O)O2 (some centres not stated) [AVERMECTIN MS],430,93,0.81,0.075,–,–,–,–,–,–
CCC(C)[C@H]1O[C@]2(C=C[C@@H]1C)C[C@@H]1C[C@@H](C/C=C(\C)[C@@H](O[C@H]3C[C@H](OC)[C@@H](O[C@H]4C[C@H](OC)[C@@H]([S+](C)[O-])[C@H](C)O4)[C@H](C)O3)[C@@H](C)/C=C/C=C3\CO[C@@H]4[C@H](O)C(C)=C[C@@H](C(=O)O1)[C@]34O)O2 (some centres not stated),430,–,–,0.016,91,91,91,91,91,91
CCC(C)[C@H]1O[C@]2(C=C[C@@H]1C)C[C@@H]1C[C@@H](C/C=C(\C)[C@@H](O[C@H]3C[C@H](OC)[C@@H](O[C@H]4C[C@H](OC)[C@@H]([S+]([O-])CCO)[C@H](C)O4)[C@H](C)O3)[C@@H](C)/C=C/C=C3\CO[C@@H]4[C@H](O)C(C)=C[C@@H](C(=O)O1)[C@]34O)O2 (some centres not stated),870,69,0.469,0.063,–,–,–,–,–,–
CCC(C)[C@H]1O[C@]2(C=C[C@@H]1C)C[C@@H]1C[C@@H](C/C=C(\C)[C@@H](O[C@H]3C[C@H](OC)[C@@H](O[C@H]4C[C@H](OC)[C@@H](SCC(C)O)[C@H](C)O4)[C@H](C)O3)[C@@H](C)/C=C/C=C3\CO[C@@H]4[C@H](O)C(C)=C[C@@H](C(=O)O1)[C@]34O)O2 (some centres not stated),870,88,0.153,0.125,–,–,–,–,–,–
CCC(C)[C@H]1O[C@]2(C=C[C@@H]1C)C[C@@H]1C[C@@H](C/C=C(\C)[C@@H](O[C@H]3C[C@H](OC)[C@@H](O[C@H]4C[C@H](OC)[C@H](S(=O)(=O)CC)[C@H](C)O4)[C@H](C)O3)[C@@H](C)/C=C/C=C3\CO[C@@H]4[C@H](O)C(C)=C[C@@H](C(=O)O1)[C@]34O)O2 (some centres not stated),650,68,0.128,0.031,–,–,–,–,–,–
CCC(C)[C@H]1O[C@]2(C=C[C@@H]1C)C[C@@H]1C[C@@H](C/C=C(\C)[C@@H](O[C@H]3C[C@H](OC)[C@@H](O[C@H]4C[C@H](OC)[C@H]([S+]([O-])CCO)[C@H](C)O4)[C@H](C)O3)[C@@H](C)/C=C/C=C3\CO[C@@H]4[C@H](O)C(C)=C[C@@H](C(=O)O1)[C@]34O)O2 (some centres not stated),1300,13,> 1.27,0.125,–,–,–,–,–,–
CCC(C)[C@H]1O[C@]2(C=C[C@@H]1C)C[C@@H]1C[C@@H](C/C=C(\C)[C@@H](O[C@H]3C[C@H](OC)[C@@H](O[C@H]4C[C@H](OC)[C@@H](S(=O)(=O)CCO)[C@H](C)O4)[C@H](C)O3)[C@@H](C)/C=C/C=C3\CO[C@@H]4[C@H](O)C(C)=C[C@@H](C(=O)O1)[C@]34O)O2 (some centres not stated),870,64,0.351,0.063,–,–,–,–,–,–
